Assay results taken from ChEMBL document CHEMBL2203188, “Preparation of N-(Hetero)cyclyl Benzamides as Inhibitors of the Activity of Complex III of the Mitochondrial Electron Transport Chain: Patent Highlight” (ACS Med Chem Lett, 2012).

Experiment: Inhibition of electron transport protein complex 3 in glioma initiating cells assessed as increase in cell death at 50 uM after 48 hrs relative to control
Type: cell-based

`O=CNc1cccc(C(=O)NC2CCCCCCCC2)c1O` showed a fold change (FC) greater than 1.2.
